In PubChem BioAssay AID1963850 (Molecular Pharmacology Branch, DTP, NCI, 2024):

Tested on: 192522-019-R-J2-PDC complex tumor spheroid viability
Assay: Anticancer human tumor 192522-019-R-J2-PDC patient-derived colon adenocarcinoma cell line growth inhibition [POLQ]
Conditions: for IC50: curve of first compound; for viability, T/C: stronger effect = lower value
Procedure, shortened: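 Three-cell-type spheroids modelling solid tumor plus stroma served as the readout system; POL inhibitors were tested individually and in combination, concentration ranges set by clinical Cmax where known.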

[1] = second compound 0.0316 µM, first compound 0.0316 µM
[2] = second compound 0.0316 µM, first compound 0.1 µM
[3] = second compound 0.0316 µM, first compound 0.316 µM
[4] = second compound 0.0316 µM, first compound 1 µM
[5] = second compound 0.0316 µM, first compound 3.16 µM
[6] = second compound 0.0316 µM, first compound 10 µM
[7] = second compound 0.1 µM, first compound 0.0316 µM
[8] = second compound 0.1 µM, first compound 0.1 µM
[9] = second compound 0.1 µM, first compound 0.316 µM
[10] = second compound 0.1 µM, first compound 1 µM
[11] = second compound 0.1 µM, first compound 3.16 µM
[12] = second compound 0.1 µM, first compound 10 µM
[13] = second compound 0.316 µM, first compound 0.0316 µM
[14] = second compound 0.316 µM, first compound 0.1 µM
[15] = second compound 0.316 µM, first compound 0.316 µM
[16] = second compound 0.316 µM, first compound 1 µM
[17] = second compound 0.316 µM, first compound 3.16 µM
[18] = second compound 0.316 µM, first compound 10 µM
[19] = second compound 1 µM, first compound 0.0316 µM
[20] = second compound 1 µM, first compound 0.1 µM
[21] = second compound 1 µM, first compound 0.316 µM
[22] = second compound 1 µM, first compound 1 µM
[23] = second compound 1 µM, first compound 3.16 µM
[24] = second compound 1 µM, first compound 10 µM
[25] = second compound 3.16 µM, first compound 0.0316 µM
[26] = second compound 3.16 µM, first compound 0.1 µM
[27] = second compound 3.16 µM, first compound 0.316 µM
[28] = second compound 3.16 µM, first compound 1 µM
[29] = second compound 3.16 µM, first compound 3.16 µM
[30] = second compound 3.16 µM, first compound 10 µM
[31] = second compound 10 µM, first compound 0.0316 µM
[32] = second compound 10 µM, first compound 0.1 µM
[33] = second compound 10 µM, first compound 0.316 µM
[34] = second compound 10 µM, first compound 1 µM
[35] = second compound 10 µM, first compound 3.16 µM
[36] = second compound 10 µM, first compound 10 µM
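Further: spheroids exposed to drugs for seven days before reading.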
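Wherever viability, T/C is given: 100% = DMSO vehicle control viability in luminescence.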

## CCCS(=O)(=O)Nc1ccc(F)c(C(=O)c2c[nH]c3ncc(-c4ccc(Cl)cc4)cc23)c1F + Nc1ccc(C#CCN(C(=O)Cc2ncc(C(F)(F)F)cc2C(F)(F)F)c2ccc(F)cc2)nn1
Second compound 0.0316 µM
  IC50: > 10 µM
Second compound 0.1 µM
  IC50: > 10 µM
Second compound 0.316 µM
  IC50: > 10 µM
Second compound 1 µM
  IC50: > 10 µM
Second compound 3.16 µM
  IC50: > 10 µM
Second compound 10 µM
  IC50: > 10 µM
[1]
  viability, T/C: 109%
[2]
  viability, T/C: 95.2%
[3]
  viability, T/C: 109%
[4]
  viability, T/C: 98.3%
[5]
  viability, T/C: 121%
[6]
  viability, T/C: 66.9%
[7]
  viability, T/C: 106%
[8]
  viability, T/C: 107%
[9]
  viability, T/C: 104%
[10]
  viability, T/C: 99.9%
[11]
  viability, T/C: 101%
[12]
  viability, T/C: 67.9%
[13]
  viability, T/C: 102%
[14]
  viability, T/C: 98.7%
[15]
  viability, T/C: 99.4%
[16]
  viability, T/C: 102%
[17]
  viability, T/C: 101%
[18]
  viability, T/C: 83.6%
[19]
  viability, T/C: 98%
[20]
  viability, T/C: 107%
[21]
  viability, T/C: 97.9%
[22]
  viability, T/C: 110%
[23]
  viability, T/C: 125%
[24]
  viability, T/C: 94.1%
[25]
  viability, T/C: 101%
[26]
  viability, T/C: 102%
[27]
  viability, T/C: 98.4%
[28]
  viability, T/C: 99.9%
[29]
  viability, T/C: 113%
[30]
  viability, T/C: 86.6%
[31]
  viability, T/C: 105%
[32]
  viability, T/C: 106%
[33]
  viability, T/C: 99.6%
[34]
  viability, T/C: 110%
[35]
  viability, T/C: 118%
[36]
  viability, T/C: 78.1%

## O=C(c1cc(Cc2n[nH]c(=O)c3ccccc23)ccc1F)N1CCN(C(=O)C2CC2)CC1 + Cc1cccc(N(C)C(=O)C2C(O)CCN2c2nc(C)cc(C(F)(F)F)c2C#N)c1
Second compound 0.0316 µM
  IC50: > 10 µM
Second compound 0.1 µM
  IC50: > 10 µM
Second compound 0.316 µM
  IC50: > 10 µM
Second compound 1 µM
  IC50: > 10 µM
Second compound 3.16 µM
  IC50: > 10 µM
Second compound 10 µM
  IC50: > 10 µM
[1]
  viability, T/C: 101%
[2]
  viability, T/C: 82.3%
[3]
  viability, T/C: 98%
[4]
  viability, T/C: 88.1%
[5]
  viability, T/C: 98.5%
[6]
  viability, T/C: 92.6%
[7]
  viability, T/C: 107%
[8]
  viability, T/C: 92.8%
[9]
  viability, T/C: 107%
[10]
  viability, T/C: 95.9%
[11]
  viability, T/C: 100%
[12]
  viability, T/C: 101%
[13]
  viability, T/C: 97.8%
[14]
  viability, T/C: 94.9%
[15]
  viability, T/C: 101%
[16]
  viability, T/C: 96.1%
[17]
  viability, T/C: 106%
[18]
  viability, T/C: 93.2%
[19]
  viability, T/C: 96.1%
[20]
  viability, T/C: 106%
[21]
  viability, T/C: 104%
[22]
  viability, T/C: 96.9%
[23]
  viability, T/C: 111%
[24]
  viability, T/C: 106%
[25]
  viability, T/C: 102%
[26]
  viability, T/C: 111%
[27]
  viability, T/C: 107%
[28]
  viability, T/C: 91.3%
[29]
  viability, T/C: 103%
[30]
  viability, T/C: 111%
[31]
  viability, T/C: 99.9%
[32]
  viability, T/C: 98.5%
[33]
  viability, T/C: 103%
[34]
  viability, T/C: 93.7%
[35]
  viability, T/C: 116%
[36]
  viability, T/C: 109%

## CCc1cc2c(N3CCc4c(cc(Cn5ccnc5)cc4-c4cn(C)nc4C(F)(F)F)C3=O)cc(C)nc2c(OC)n1 + Nc1ccc(C#CCN(C(=O)Cc2ncc(C(F)(F)F)cc2C(F)(F)F)c2ccc(F)cc2)nn1
Second compound 0.0316 µM
  IC50: > 10 µM
Second compound 0.1 µM
  IC50: > 10 µM
Second compound 0.316 µM
  IC50: > 10 µM
Second compound 1 µM
  IC50: > 10 µM
Second compound 3.16 µM
  IC50: > 10 µM
Second compound 10 µM
  IC50: > 10 µM
[1]
  viability, T/C: 102%
[2]
  viability, T/C: 99.6%
[3]
  viability, T/C: 88.1%
[4]
  viability, T/C: 73.7%
[5]
  viability, T/C: 63.6%
[6]
  viability, T/C: 65.4%
[7]
  viability, T/C: 101%
[8]
  viability, T/C: 93.6%
[9]
  viability, T/C: 77.1%
[10]
  viability, T/C: 76.9%
[11]
  viability, T/C: 79.5%
[12]
  viability, T/C: 73.1%
[13]
  viability, T/C: 105%
[14]
  viability, T/C: 100%
[15]
  viability, T/C: 89.4%
[16]
  viability, T/C: 75.6%
[17]
  viability, T/C: 72.8%
[18]
  viability, T/C: 73.4%
[19]
  viability, T/C: 103%
[20]
  viability, T/C: 94.2%
[21]
  viability, T/C: 90.8%
[22]
  viability, T/C: 76.8%
[23]
  viability, T/C: 70.8%
[24]
  viability, T/C: 69.2%
[25]
  viability, T/C: 101%
[26]
  viability, T/C: 95.9%
[27]
  viability, T/C: 89.7%
[28]
  viability, T/C: 81.6%
[29]
  viability, T/C: 90.6%
[30]
  viability, T/C: 81.3%
[31]
  viability, T/C: 102%
[32]
  viability, T/C: 98.7%
[33]
  viability, T/C: 89.1%
[34]
  viability, T/C: 83.4%
[35]
  viability, T/C: 92.8%
[36]
  viability, T/C: 81%

## CCCS(=O)(=O)Nc1ccc(F)c(C(=O)c2c[nH]c3ncc(-c4ccc(Cl)cc4)cc23)c1F + COC1C(OC(N)=O)C(O)C(Oc2ccc3c(O)c(NC(=O)c4ccc(O)c(CC=C(C)C)c4)c(=O)oc3c2C)OC1(C)C
Second compound 0.0316 µM
  IC50: > 10 µM
Second compound 0.1 µM
  IC50: > 10 µM
Second compound 0.316 µM
  IC50: > 10 µM
Second compound 1 µM
  IC50: > 10 µM
Second compound 3.16 µM
  IC50: > 10 µM
Second compound 10 µM
  IC50: > 10 µM
[1]
  viability, T/C: 115%
[2]
  viability, T/C: 97.6%
[3]
  viability, T/C: 110%
[4]
  viability, T/C: 96.9%
[5]
  viability, T/C: 124%
[6]
  viability, T/C: 97.9%
[7]
  viability, T/C: 105%
[8]
  viability, T/C: 103%
[9]
  viability, T/C: 110%
[10]
  viability, T/C: 108%
[11]
  viability, T/C: 107%
[12]
  viability, T/C: 113%
[13]
  viability, T/C: 109%
[14]
  viability, T/C: 110%
[15]
  viability, T/C: 105%
[16]
  viability, T/C: 106%
[17]
  viability, T/C: 104%
[18]
  viability, T/C: 108%
[19]
  viability, T/C: 104%
[20]
  viability, T/C: 100%
[21]
  viability, T/C: 107%
[22]
  viability, T/C: 103%
[23]
  viability, T/C: 101%
[24]
  viability, T/C: 100%
[25]
  viability, T/C: 110%
[26]
  viability, T/C: 102%
[27]
  viability, T/C: 108%
[28]
  viability, T/C: 97.3%
[29]
  viability, T/C: 106%
[30]
  viability, T/C: 117%
[31]
  viability, T/C: 107%
[32]
  viability, T/C: 102%
[33]
  viability, T/C: 103%
[34]
  viability, T/C: 101%
[35]
  viability, T/C: 124%
[36]
  viability, T/C: 117%
